Assay results from US20130178469A1, “NOVEL ANTIVIRAL AGENTS” (SHANGHAI INSTITUTE OF ORGANIC CHEMISTRY (SIOC), priority 2010, published 2013).
pEC50: −log10 of the molar value. Like-named read-outs stand apart in the source and are kept apart here.

Tests used:
[1] = Bioavailability and pharmacokinetic profile following intravenous and oral administration; format: in vivo, Male Sprague Dawley Rats; conditions: for MRT inf: read-out: MRT(0-∞); for Vd: read-out: Vz
Method: (§1) Method: For IV infusion over 10 minutes the compound of Example 3.4 was dissolved in 20% DMSO, 30% PEG400 and 50% Water. For oral (PO) dosing AVX62738 was dissolved in 0.5% benzyl alcohol and 0.4% Tween 80 and 99.1% 0.5% hydroxypropylmethylcellulose. Compounds were dosed IV and then after a one week washout, orally in the same rats. (Body weight: Rat 1: 254.7 g; Rat 2: 253.4 g). Ex-vivo plasma samples were assayed for AVX62738 using an LC-ms method of Lower limit of quantitation. (LLOQ)=2.5 ng/mL.

[2] = Clinical Observation following intravenous and oral administration; format: in vivo, Male Sprague Dawley Rats
Method: as §1

HIV-1 = assay: Luciferase Assay with single-round reporter virus (NLXLuc or HIV-Luc); format: cell-based; conditions: Human immunodeficiency virus 1
Excerpt: Infectivity assays using reporter viruses derived from lentiviral vectors capable of a single round of infection were used to determine the activity (EC50) of compounds. The DNA used to generate viruses for infection was the full-length HIV-1 genome which had been envelope-deleted. In addition, a reporter gene (the firefly luciferase gene from Photinus pyralis) was cloned into the nefregion of the HIV backbone for ease of assay readout. […]. Culture supernatants containing VSV-G pseudotyped virions were harvested 64 h post transfection, clarified by centrifugation to remove cell debris, and frozen at −70° C. until use.
293FT cells were plated out at 12000 cells per well in CellView 96-well cell culture plates (Invitrogen) 16 h prior to compound addition. Compounds were preincubated with cells for 4 h at 37° C. prior to the addition of virus sufficient to generate approximately 10000 Luciferase light units (as measured by the Victor Wallace luminometer) upon assaying using the Bright-Glo™ reagent (Promega) according to the manufacturer's instructions at 48 h post infection.
In the tables below, this assay is referred to as NLXLuc or HIV-Luc.

[3] = male, Sprague Dawley, rat, plasma, iv, 5 mg/kg, IV 5 mg/kg, Mean
[4] = male, Sprague Dawley, rat, plasma, iv, 5 mg/kg, IV 5 mg/kg, Rat 1
[5] = male, Sprague Dawley, rat, plasma, iv, 5 mg/kg, IV 5 mg/kg, Rat 2
[6] = male, Sprague Dawley, rat, plasma, iv, 5 mg/kg, IV (5 mg/kg), Mean
[7] = male, Sprague Dawley, rat, plasma, iv, 5 mg/kg, IV (5 mg/kg), animal 701
[8] = male, Sprague Dawley, rat, plasma, po, 10 mg/kg, PO 10 mg/kg, Mean
[9] = male, Sprague Dawley, rat, plasma, po, 10 mg/kg, PO 10 mg/kg, Rat 1
[10] = male, Sprague Dawley, rat, plasma, po, 10 mg/kg, PO 10 mg/kg, Rat 2
[11] = male, Sprague Dawley, rat, plasma, po, 10 mg/kg, PO (10 mg/kg), Mean
[12] = male, Sprague Dawley, rat, plasma, po, 10 mg/kg, PO (10 mg/kg), animal 801
[13] = male, Sprague Dawley, rat, plasma, po, 10 mg/kg, PO (10 mg/kg), animal 802
[14] = male, Sprague-Dawley, rat, plasma, iv, 5 mg/kg, IV (5 mg/kg), animal 701
[15] = male, Sprague-Dawley, rat, plasma, iv, 5 mg/kg, IV (5 mg/kg), animal 702

CN1CCN(c2cc(N3CCN(C)S3(=O)=O)c3nc(C(=O)NCc4ccc(F)cc4)c(O)c(=O)n3c2)CC1 [Example 3.4, 3-Hydroxy-9-(5-methyl-1,1-dioxo-1,6-[1,2,5]thiadiazolidin-2-yl)-7-(4-methyl-piperazin-1-yl)-4-oxo-4H-pyrido[1,2-a]pyrimidine-2-carboxylic acid 4-fluoro-benzylamide]
Plasma Concentration ([1]; IV 5 mg/kg, Rat 1, 24 hr): BLQ (BLQ: Below limit of quantitation)
Plasma Concentration ([1]; IV 5 mg/kg, Rat 1, Pre-dose): BLQ (BLQ: Below limit of quantitation)
Plasma Concentration ([1]; IV 5 mg/kg, Rat 2, 24 hr): BLQ (BLQ: Below limit of quantitation)
Plasma Concentration ([1]; IV 5 mg/kg, Rat 2, Pre-dose): BLQ (BLQ: Below limit of quantitation)
CLz ([1]; IV (5 mg/kg), Mean): 44.8 mL/min/kg
t1/2z ([1]; IV (5 mg/kg), Mean): 80.4 min
CLz ([1]; IV (5 mg/kg), animal 701): 44.8 mL/min/kg
t1/2z ([1]; IV (5 mg/kg), animal 701): 83.4 min
CLz ([1]; IV (5 mg/kg), animal 702): 44.8 mL/min/kg
t1/2z ([1]; IV (5 mg/kg), animal 702): 77.4 min
Plasma Concentration ([1]; PO 10 mg/kg, Rat 1, Pre-dose): BLQ (BLQ: Below limit of quantitation)
Plasma Concentration ([1]; PO 10 mg/kg, Rat 2, 6 hr): BLQ (BLQ: Below limit of quantitation)
Plasma Concentration ([1]; PO 10 mg/kg, Rat 2, 8 hr): BLQ (BLQ: Below limit of quantitation)
Plasma Concentration ([1]; PO 10 mg/kg, Rat 2, 24 hr): BLQ (BLQ: Below limit of quantitation)
Plasma Concentration ([1]; PO 10 mg/kg, Rat 2, Pre-dose): BLQ (BLQ: Below limit of quantitation)
F ([1]; PO (10 mg/kg), Mean): 2.95%
t1/2z ([1]; PO (10 mg/kg), Mean): 74.4 min
F ([1]; PO (10 mg/kg), animal 801): 2.39%
t1/2z ([1]; PO (10 mg/kg), animal 801): 99 min
F ([1]; PO (10 mg/kg), animal 802): 3.50%
t1/2z ([1]; PO (10 mg/kg), animal 802): 49.8 min
concentration at 0.083 hr [1, 3]: 3030 ng/mL
concentration at 0.25 hr [1, 3]: 2060 ng/mL
concentration at 0.5 hr [1, 3]: 1140 ng/mL
concentration at 1 hr [1, 3]: 527 ng/mL
concentration at 2 hr [1, 3]: 113 ng/mL
concentration at 4 hr [1, 3]: 19 ng/mL
concentration at 6 hr ([1]; male, Sprague Dawley, rat, plasma, iv, 5 mg/kg, IV 5 mg/kg, Mean, 6 hr): 6.21 ng/mL
concentration at 8 h ([1]; male, Sprague Dawley, rat, plasma, iv, 5 mg/kg, IV 5 mg/kg, Mean, 8 hr): 2.41 ng/mL
concentration at 0.083 hr [1, 4]: 2710 ng/mL
concentration at 0.25 hr [1, 4]: 1990 ng/mL
concentration at 0.5 hr [1, 4]: 1210 ng/mL
concentration at 1 hr [1, 4]: 548 ng/mL
concentration at 2 hr [1, 4]: 123 ng/mL
concentration at 4 hr [1, 4]: 19.3 ng/mL
concentration at 6 hr ([1]; male, Sprague Dawley, rat, plasma, iv, 5 mg/kg, IV 5 mg/kg, Rat 1, 6 hr): 5.44 ng/mL
concentration at 8 h ([1]; male, Sprague Dawley, rat, plasma, iv, 5 mg/kg, IV 5 mg/kg, Rat 1, 8 hr): 2.64 ng/mL
concentration at 0.083 hr [1, 5]: 3350 ng/mL
concentration at 0.25 hr [1, 5]: 2130 ng/mL
concentration at 0.5 hr [1, 5]: 1060 ng/mL
concentration at 1 hr [1, 5]: 506 ng/mL
concentration at 2 hr [1, 5]: 104 ng/mL
concentration at 4 hr [1, 5]: 18.7 ng/mL
concentration at 6 hr ([1]; male, Sprague Dawley, rat, plasma, iv, 5 mg/kg, IV 5 mg/kg, Rat 2, 6 hr): 6.97 ng/mL
concentration at 8 h ([1]; male, Sprague Dawley, rat, plasma, iv, 5 mg/kg, IV 5 mg/kg, Rat 2, 8 hr): 2.19 ng/mL
AUC(0-inf) [1, 6]: 1860 ng·h/mL
AUC(0-t) [1, 6]: 1850 ng·h/mL
Cmax [1, 6]: 3030 ng/mL
Tmax [1, 6]: 4.8 min
MRT inf [1, 6]: 39.6 min
Vd [1, 6]: 5.21 L/kg
AUC(0-inf) [1, 7]: 1860 ng·h/mL
AUC(0-t) [1, 7]: 1860 ng·h/mL
Tmax [1, 7]: 4.8 min
MRT inf [1, 7]: 40.8 min
concentration at 0.083 hr [1, 8]: 35.2 ng/mL
concentration at 0.25 hr [1, 8]: 72.2 ng/mL
concentration at 0.5 hr [1, 8]: 63.6 ng/mL
concentration at 1 hr [1, 8]: 39.5 ng/mL
concentration at 2 hr [1, 8]: 14.1 ng/mL
concentration at 4 hr [1, 8]: 5.29 ng/mL
concentration at 6 h ([1]; male, Sprague Dawley, rat, plasma, po, 10 mg/kg, PO 10 mg/kg, Mean, 6 hr): 1.31 ng/mL
concentration at 0.083 hr [1, 9]: 42.4 ng/mL
concentration at 0.25 hr [1, 9]: 66.2 ng/mL
concentration at 0.5 hr [1, 9]: 35.7 ng/mL
concentration at 1 hr [1, 9]: 20.9 ng/mL
concentration at 2 hr [1, 9]: 13.8 ng/mL
concentration at 4 hr [1, 9]: 5.62 ng/mL
concentration at 6 hr ([1]; male, Sprague Dawley, rat, plasma, po, 10 mg/kg, PO 10 mg/kg, Rat 1, 6 hr): 2.62 ng/mL
concentration at 8 h ([1]; male, Sprague Dawley, rat, plasma, po, 10 mg/kg, PO 10 mg/kg, Rat 1, 8 hr, not kept for calculation): 148 ng/mL
concentration at 24 h ([1]; male, Sprague Dawley, rat, plasma, po, 10 mg/kg, PO 10 mg/kg, Rat 1, 24 hr, not kept for calculation): 4.66 ng/mL
concentration at 0.083 hr [1, 10]: 28.1 ng/mL
concentration at 0.25 hr [1, 10]: 78.1 ng/mL
concentration at 0.5 hr [1, 10]: 91.6 ng/mL
concentration at 1 hr [1, 10]: 58.1 ng/mL
concentration at 2 hr [1, 10]: 14.3 ng/mL
concentration at 4 hr [1, 10]: 4.96 ng/mL
AUC(0-inf) [1, 11]: 110 ng·h/mL
AUC(0-t) [1, 11]: 103 ng·h/mL
Cmax [1, 11]: 78.9 ng/mL
Tmax [1, 11]: 22.8 min
MRT inf [1, 11]: 97.8 min
AUC(0-inf) [1, 12]: 89 ng·h/mL
AUC(0-t) [1, 12]: 82.8 ng·h/mL
Cmax [1, 12]: 66.2 ng/mL
Tmax [1, 12]: 15 min
MRT inf [1, 12]: 122 min
AUC(0-inf) [1, 13]: 130 ng·h/mL
AUC(0-t) [1, 13]: 124 ng·h/mL
Cmax [1, 13]: 91.6 ng/mL
Tmax [1, 13]: 30 min
MRT inf [1, 13]: 73.2 min
Cmax [1, 14]: 2710 ng/mL
Vd [1, 14]: 5.39 L/kg
AUC(0-inf) [1, 15]: 1860 ng·h/mL
AUC(0-t) [1, 15]: 1850 ng·h/mL
Cmax [1, 15]: 3350 ng/mL
Tmax [1, 15]: 4.8 min
MRT inf [1, 15]: 37.8 min
Vd [1, 15]: 5.02 L/kg
Clinical Observation ([2]; following intravenous administration (5 mg/kg)): Following intravenous administration, no obvious abnormalities were
Clinical Observation ([2]; following oral administration (10 mg/kg)): Following oral administration, no obvious abnormalities were observed.
pEC50 (HIV-1): 8.00 to 9.00
